Source: ChEMBL document CHEMBL4219271, “Synthesis and anti-proliferative activity of allogibberic acid derivatives containing 1,2,3-triazole pharmacophore” (Bioorg Med Chem Lett, 2018)

How the values were obtained:
[1] = system: HL-60; assay: Cytotoxicity against human HL60 cells assessed as decrease in cell viability after 4 days by MTT assay; type: functional, cell-based; settings: HL-60, 96 h
[2] = system: SMMC-7721; assay: Cytotoxicity against human SMMC7721 cells assessed as decrease in cell viability after 4 days by MTT assay; type: functional, cell-based; settings: SMMC-7721, 96 h
[3] = system: A549; assay: Cytotoxicity against human A549 cells assessed as decrease in cell viability after 4 days by MTT assay; type: functional, cell-based; settings: A549, 96 h
[4] = system: MCF7; assay: Cytotoxicity against human MCF7 cells assessed as decrease in cell viability after 4 days by MTT assay; type: functional, cell-based; settings: MCF7, 96 h
[5] = system: SW480; assay: Cytotoxicity against human SW480 cells assessed as decrease in cell viability after 4 days by MTT assay; type: functional, cell-based; settings: SW480, 96 h
[6] = system: MCF7; assay: Potency index, ratio of cisplatin IC50 to compound IC50 for human MCF7 cells; type: functional
[7] = system: SW480; assay: Potency index, ratio of cisplatin IC50 to compound IC50 for human SW480 cells; type: functional

SMILES	IC50 [1] [nM]	IC50 [2] [nM]	IC50 [3] [nM]	IC50 [4] [nM]	IC50 [5] [nM]	Ratio IC50 [6]	Ratio IC50 [7]
C=C1C(=O)[C@]23C[C@@]1(O)CC[C@H]2c1ccc(OS(=O)(=O)c2ccc(C)cc2)c(C)c1[C@@H]3Cn1cc(-c2ccc(OC)cc2)nn1	1020	1720	1470	310	1640	37	
C=C1C(=O)[C@]23C[C@@]1(O)CC[C@H]2c1ccc(O)c(C)c1[C@@H]3Cn1cc(-c2ccc(C(F)(F)F)cc2)nn1	720	1440	1110	1840	370		22
C=C1C(=O)[C@]23C[C@@]1(O)CC[C@H]2c1ccc(OS(=O)(=O)c2ccc(C)cc2)c(C)c1[C@@H]3Cn1cc(-c2ccc(F)cc2)nn1	1290	4280	1950	330	1630	35	
C=C1C(=O)[C@]23C[C@@]1(O)CC[C@H]2c1ccc(OS(=O)(=O)c2ccc(C)cc2)c(C)c1[C@@H]3Cn1cc(-c2ccc(Br)cc2)nn1	1020	4320	1630	250	1590	46	
C=C1C(=O)[C@]23C[C@@]1(O)CC[C@H]2c1ccc(O)c(C)c1[C@@H]3Cn1cc(-c2ccc(Br)cc2)nn1	560	1300	1140	270	310		36
C=C1C(=O)[C@]23C[C@@]1(O)CC[C@H]2c1ccc(O)c(C)c1[C@@H]3Cn1cc(-c2ccc(Cl)cc2)nn1	690	670	640	2470	280		29
C=C1C(=O)[C@]23C[C@@]1(O)CC[C@H]2c1ccc(OS(=O)(=O)c2ccc(C)cc2)c(C)c1[C@@H]3Cn1cc(-c2ccccn2)nn1	1810	2830	2310	320	1970	36	
C=C1C(=O)[C@]23C[C@@]1(O)CC[C@H]2c1ccc(O)c(C)c1[C@@H]3Cn1cc(-c2ccccc2)nn1	750	1320	1160	1740	260		31
C=C1C(=O)[C@]23C[C@@]1(O)CC[C@H]2c1ccc(OS(=O)(=O)c2ccc(C)cc2)c(C)c1[C@@H]3Cn1cc(-c2ccc(C)cc2)nn1	1110	4410	1830	320	1460	36	
C=C1C[C@]23C[C@@]1(O)CC[C@H]2c1ccc(OS(=O)(=O)c2ccc(C)cc2)c(C)c1[C@@H]3Cn1cc(-c2ccc(Br)cc2)nn1	> 20000	> 20000	> 20000	> 20000	> 20000		
Cc1ccc(S(=O)(=O)Oc2ccc3c(c2C)[C@H](Cn2cc(-c4ccc(Cl)cc4)nn2)[C@@]24CC(=O)[C@@](C)(CC[C@@H]32)C4)cc1	> 20000	> 20000	> 20000	> 20000	> 20000		
C=C1C[C@]23C[C@@]1(O)CC[C@H]2c1cc(Br)c(O)c(C)c1[C@@H]3Cn1cc(-c2ccc(OC)cc2)nn1	> 20000	> 20000	> 20000	> 20000	> 20000		
C=C1C[C@]23C[C@@]1(O)CC[C@@H]2c1cccc(C)c1[C@@H]3Cn1cc(-c2ccc(F)cc2)nn1	> 20000	> 20000	> 20000	> 20000	> 20000		
C=C1C[C@]23C[C@@]1(O)CC[C@@H]2c1cccc(C)c1[C@@H]3Cn1cc(-c2ccccc2)nn1	> 20000	> 20000	> 20000	> 20000	> 20000		
C=C1C[C@]23C[C@@]1(O)CC[C@@H]2c1cccc(C)c1[C@@H]3Cn1cc(-c2ccc(Br)cc2)nn1	> 20000	> 20000	> 20000	> 20000	> 20000		
C=C1C[C@]23C[C@@]1(O)CC[C@H]2c1ccc(OS(=O)(=O)c2ccc(C)cc2)c(C)c1[C@@H]3Cn1cc(-c2ccc(OC)cc2)nn1	> 20000	> 20000	> 20000	> 20000	> 20000		

SMILES	IC50 [1] [nM]	IC50 [2] [nM]	IC50 [3] [nM]	IC50 [4] [nM]	IC50 [5] [nM]	Ratio IC50 [6]	Ratio IC50 [7]
Cc1c(O)ccc2c1[C@H](Cn1cc(-c3ccc(F)cc3)nn1)[C@@]13CC(=O)[C@@](C)(CC[C@@H]21)C3	> 20000	> 20000	> 20000	> 20000	> 20000		
C=C1C(=O)[C@]23C[C@@]1(O)CC[C@H]2c1ccc(OS(=O)(=O)c2ccc(C)cc2)c(C)c1[C@@H]3Cn1cc(-c2ccc(Cl)cc2)nn1	1260	6180	1870	1440	2390	8	
C=C1C(=O)[C@]23C[C@@]1(O)CC[C@H]2c1ccc(O)c(C)c1[C@@H]3Cn1cc(-c2ccc(OC)cc2)nn1	1150	860	1250	1710	220		39
Cc1c(O)ccc2c1[C@H](Cn1cc(-c3ccc(C(F)(F)F)cc3)nn1)[C@@]13CC(=O)[C@@](C)(CC[C@@H]21)C3	> 20000	> 20000	> 20000	> 20000	> 20000		
Cc1ccc(S(=O)(=O)Oc2ccc3c(c2C)[C@H](Cn2cc(-c4ccccn4)nn2)[C@@]24CC(=O)[C@@](C)(CC[C@@H]32)C4)cc1	> 20000	> 20000	> 20000	> 20000	> 20000		
C=C1C[C@]23C[C@@]1(O)CC[C@H]2c1cc(Br)c(O)c(C)c1[C@@H]3Cn1cc(-c2ccc(C)cc2)nn1	> 20000	> 20000	> 20000	> 20000	> 20000		
COc1ccc(-c2cn(C[C@H]3c4c(ccc(O)c4C)[C@@H]4CC[C@@]5(C)C[C@]43CC5=O)nn2)cc1	> 20000	> 20000	> 20000	> 20000	> 20000		
C=C1C[C@]23C[C@@]1(O)CC[C@H]2c1ccc(O)c(C)c1[C@@H]3Cn1cc(-c2ccccc2)nn1	> 20000	> 20000	> 20000	> 20000	> 20000		
C=C1C(=O)[C@]23C[C@@]1(O)CC[C@H]2c1ccc(O)c(C)c1[C@@H]3Cn1cc(-c2ccccn2)nn1	1970	1270	1570	2240	410		20
C=C1C[C@]23C[C@@]1(O)CC[C@H]2c1cc(Br)c(O)c(C)c1[C@@H]3Cn1cc(-c2ccccn2)nn1	> 20000	> 20000	> 20000	> 20000	> 20000		
C=C1C[C@]23C[C@@]1(O)CC[C@H]2c1cc(Br)c(O)c(C)c1[C@@H]3Cn1cc(-c2ccc(Cl)cc2)nn1	5590	19100	10500	10200	18000		
Cc1ccc(-c2cn(C[C@H]3c4c(ccc(O)c4C)[C@@H]4CC[C@@]5(C)C[C@]43CC5=O)nn2)cc1	> 20000	> 20000	> 20000	> 20000	> 20000		
C=C1C[C@]23C[C@@]1(O)CC[C@H]2c1ccc(OS(=O)(=O)c2ccc(C)cc2)c(C)c1[C@@H]3Cn1cc(-c2ccc(C)cc2)nn1	> 20000	> 20000	> 20000	> 20000	> 20000		
C=C1C[C@]23C[C@@]1(O)CC[C@H]2c1ccc(OS(=O)(=O)c2ccc(C)cc2)c(C)c1[C@@H]3Cn1cc(-c2ccc(F)cc2)nn1	> 20000	> 20000	> 20000	> 20000	> 20000		
C=C1C(=O)[C@]23C[C@@]1(O)CC[C@H]2c1ccc(O)c(C)c1[C@@H]3Cn1cc(-c2ccc(C)cc2)nn1	830	920	1260	370	330		25
